Columns and labels:
[1] = target: T1, human AT1 receptor (Homo sapiens, UniProt P30556); test: Binding assay using human AT1 receptor-expressing CHO-K1 cell membrane fraction ([125I]-angiotensin II); details: 22.5 pM [125I]-angiotensin II, 9 μg AT1 membrane, 1 hr room temperature; read-out: AT1 receptor binding inhibitory action (IC50 (nM))
T1 construct: expressed in transfected cells; host or cells: CHO-K1
T1 sequence (P30556 1-359): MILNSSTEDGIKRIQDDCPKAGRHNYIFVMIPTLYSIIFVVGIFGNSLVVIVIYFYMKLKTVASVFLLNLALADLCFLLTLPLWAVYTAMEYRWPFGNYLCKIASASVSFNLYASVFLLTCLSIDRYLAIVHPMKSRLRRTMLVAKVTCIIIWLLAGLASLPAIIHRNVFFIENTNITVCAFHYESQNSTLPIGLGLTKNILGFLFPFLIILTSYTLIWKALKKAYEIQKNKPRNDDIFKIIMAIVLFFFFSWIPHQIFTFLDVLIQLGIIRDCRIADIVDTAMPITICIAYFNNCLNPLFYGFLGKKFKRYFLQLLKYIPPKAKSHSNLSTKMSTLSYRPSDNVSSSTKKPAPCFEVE
Procedure, shortened: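 CHO-K1 membranes stably expressing AT1 (9 μg) incubated with 22.5 pM [125I]-angiotensin II and compound in 50 mM Tris pH 7.4, 10 mM MgCl2, with or without 0.3 mg/mL fatty acid-free BSA, 1 hr at room temperature. Bound radioactivity counted after GF/C filtration; nonspecific binding with 1 μM CV-11974; IC50 calculated.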

[2] = target: T2, PPARγ (Homo sapiens, UniProt P37231); test: Evaluation of PPARγ activating action (luciferase reporter in PPARγ:RXRα:4ERPP/CHO-K1 cells); format: cell-based; details: CHO-K1, 24 h; test compound 10^−6 M; luciferase activity relative to control compound X (1 μM) = 100%, non-administration group = 0%; read-out: PPARγ activating action (activation % (10^−6 M))
T2 construct: expressed in transfected cells; host or cells: CHO-K1
T2 sequence (P37231 1-477 isoform P37231-2): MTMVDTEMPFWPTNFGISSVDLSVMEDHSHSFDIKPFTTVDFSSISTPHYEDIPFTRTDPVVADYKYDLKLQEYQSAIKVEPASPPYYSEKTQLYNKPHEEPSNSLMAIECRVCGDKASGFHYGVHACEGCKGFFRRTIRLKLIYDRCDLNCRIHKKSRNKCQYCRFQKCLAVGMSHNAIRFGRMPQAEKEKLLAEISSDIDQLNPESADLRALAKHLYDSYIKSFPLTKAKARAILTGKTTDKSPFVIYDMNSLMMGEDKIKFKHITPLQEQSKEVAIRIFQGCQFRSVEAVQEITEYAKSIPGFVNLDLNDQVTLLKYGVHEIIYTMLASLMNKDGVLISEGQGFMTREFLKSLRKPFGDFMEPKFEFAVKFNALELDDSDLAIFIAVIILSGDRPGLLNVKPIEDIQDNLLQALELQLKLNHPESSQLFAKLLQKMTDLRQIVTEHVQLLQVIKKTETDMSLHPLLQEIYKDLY
T2 sequence (P19793 1-462 partner): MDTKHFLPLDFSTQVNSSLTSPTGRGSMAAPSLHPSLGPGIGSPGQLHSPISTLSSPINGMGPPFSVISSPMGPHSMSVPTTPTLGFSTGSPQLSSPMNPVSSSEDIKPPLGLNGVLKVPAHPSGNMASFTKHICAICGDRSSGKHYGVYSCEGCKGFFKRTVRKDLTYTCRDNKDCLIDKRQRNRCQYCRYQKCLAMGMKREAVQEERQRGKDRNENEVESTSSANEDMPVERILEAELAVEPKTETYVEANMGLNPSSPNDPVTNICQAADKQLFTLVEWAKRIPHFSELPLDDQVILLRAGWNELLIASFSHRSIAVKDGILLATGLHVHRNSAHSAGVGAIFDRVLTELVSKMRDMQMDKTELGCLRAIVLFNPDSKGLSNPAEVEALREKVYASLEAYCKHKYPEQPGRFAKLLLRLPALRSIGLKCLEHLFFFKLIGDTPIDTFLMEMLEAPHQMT
Procedure, shortened: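 CHO-K1 cells stably carrying PPARγ, RXRα and a 4ERPP luciferase reporter were treated with compound for 1 day at 37 °C in F12 medium with 0.1% fatty acid-free BSA. Luciferase activity was read and scaled between no compound (0%) and reference agonist compound X at 1 μM (100%).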

| SMILES | IC50 [1] [nM] | activation at 1 µM [2] [%] |
| --- | --- | --- |
| CCCCc1nc(C)n(CC2CCCCO2)c(=O)c1Cc1ccc(-c2ccccc2-c2noc(=O)[nH]2)cc1 (centres unmarked) [Example 160, 6-butyl-2-methyl-5-{[2′-(5-oxo-4,5-dihydro-1,2,4-oxadiazol-3-yl)biphenyl-4-yl]methyl}-3-(tetrahydro-2H-pyran-2-ylmethyl)pyrimidin-4(3H)-one] | 1.8 | 61.6 |
| CCCCc1nc(C)n(Cc2c(F)cccc2F)c(=O)c1Cc1ccc(-c2ccccc2-c2noc(=O)[nH]2)cc1 [Example 165, 6-butyl-3-(2,6-difluorobenzyl)-2-methyl-5-{[2′-(5-oxo-4,5-dihydro-1,2,4-oxadiazol-3-yl)biphenyl-4-yl]methyl}pyrimidin-4(3H)-one] | 1.7 | 59 |
| CCCc1ncn(-c2ccc3c(c2)CC(C)(C)O3)c(=O)c1Cc1ccc(-c2ccccc2-c2noc(=O)[nH]2)cc1 [Example 178, 3-(2,2-dimethyl-2,3-dihydro-1-benzofuran-5-yl)-5-{[2′-(5-oxo-4,5-dihydro-1,2,4-oxadiazol-3-yl)biphenyl-4-yl]methyl}-6-propylpyrimidin-4(3H)-one] | 2.6 | 37.5 |
| CCCCc1nc(C)n(-c2ccc(C)c(C)c2)c(=O)c1Cc1ccc(-c2ccccc2-c2noc(=O)[nH]2)cc1 [Example 202, 6-butyl-3-(3,4-dimethylphenyl)-2-methyl-5-{[2′-(5-oxo-4,5-dihydro-1,2,4-oxadiazol-3-yl)biphenyl-4-yl]methyl}pyrimidin-4(3H)-one] | 1.5 | 25.3 |
| CCCCc1nc(C)n(-c2ccccc2)c(=O)c1Cc1c(F)cc(-c2ccccc2-c2noc(=O)[nH]2)cc1F [Example 204, 6-butyl-5-{[3,5-difluoro-2′-(5-oxo-4,5-dihydro-1,2,4-oxadiazol-3-yl)biphenyl-4-yl]methyl}-2-methyl-3-phenylpyrimidin-4(3H)-one] | 1.6 | 27.4 |
| CCCCc1nc(C)n(-c2ccoc2)c(=O)c1Cc1ccc(-c2ccccc2-c2noc(=O)[nH]2)cc1 [Example 206, 6-butyl-3-(3-furyl)-2-methyl-5-{[2′-(5-oxo-4,5-dihydro-1,2,4-oxadiazol-3-yl)biphenyl-4-yl]methyl}pyrimidin-4(3H)-one] | 2 | 21.8 |
| CCCCc1nc(C)n(-c2cccc(C(C)(C)O)c2)c(=O)c1Cc1ccc(-c2ccccc2-c2noc(=O)[nH]2)cc1 [Example 217, 6-butyl-3-[3-(1-hydroxy-1-methylethyl)phenyl]-2-methyl-5-{[2′-(5-oxo-4,5-dihydro-1,2,4-oxadiazol-3-yl)biphenyl-4-yl]methyl}pyrimidin-4(3H)-one] | 1.1 | 26.8 |
| CCCCc1nc(C)n(-c2ccc(OCC)cc2)c(=O)c1Cc1ccc(-c2ccccc2-c2noc(=O)[nH]2)cc1 [Example 222, 6-butyl-3-(4-ethoxyphenyl)-2-methyl-5-{[2′-(5-oxo-4,5-dihydro-1,2,4-oxadiazol-3-yl)biphenyl-4-yl]methyl}pyrimidin-4(3H)-one] | 1.3 | 29.3 |
| CCCCc1nc(C)n(-c2ccc3c(c2)CC(C)(C)O3)c(=O)c1Cc1ccc(-c2ccccc2-c2noc(O)n2)cc1 [Example 234, 6-butyl-3-(2,2-dimethyl-2,3-dihydro-1-benzofuran-5-yl)-2-methyl-5-{[2′-(5-oxo-4,5-dihydro-1,2,4-oxadiazol-3-yl)biphenyl-4-yl]methyl}pyrimidin-4(3H)-one] | 1.2 | 33.9 |
| CCCc1nc(C)n(-c2ccc3c(c2)CC(C)O3)c(=O)c1Cc1ccc(-c2ccccc2-c2noc(=O)[nH]2)cc1 (centres unmarked) [Example 235, 2-methyl-3-(2-methyl-2,3-dihydro-1-benzofuran-5-yl)-5-{[2′-(5-oxo-4,5-dihydro-1,2,4-oxadiazol-3-yl)biphenyl-4-yl]methyl}-6-propylpyrimidin-4(3H)-one] | 1.5 | 27.6 |
| CCCc1nc(C)n(-c2ccc3c(c2)CC(C)(C)O3)c(=O)c1Cc1ccc(-c2ccccc2-c2noc(=O)[nH]2)cc1 [Example 239, 3-(2,2-dimethyl-2,3-dihydro-1-benzofuran-5-yl)-2-methyl-5-{[2′-(5-oxo-4,5-dihydro-1,2,4-oxadiazol-3-yl)biphenyl-4-yl]methyl}-6-propylpyrimidin-4(3H)-one] | 1.8 | 31.6 |
| CCCOc1ccc(-n2c(C)nc(CCC)c(Cc3ccc(-c4ccccc4-c4noc(=O)[nH]4)cc3)c2=O)cc1 [Example 249, 2-methyl-5-{[2′-(5-oxo-4,5-dihydro-1,2,4-oxadiazol-3-yl)biphenyl-4-yl]methyl}-3-(4-propoxyphenyl)-6-propylpyrimidin-4(3H)-one] | 1.6 | 30.5 |
| CCCc1nc(C)n(-c2ccc(OC3CCC3)cc2)c(=O)c1Cc1ccc(-c2ccccc2-c2noc(=O)[nH]2)cc1 [Example 255, 3-[4-(cyclobutyloxy)phenyl]-2-methyl-5-{[2′-(5-oxo-4,5-dihydro-1,2,4-oxadiazol-3-yl)biphenyl-4-yl]methyl}-6-propylpyrimidin-4(3H)-one] | 1.7 | 30.5 |
| CCCc1nc(C)n(-c2ccc(OC(CC)CC)cc2)c(=O)c1Cc1ccc(-c2ccccc2-c2noc(=O)[nH]2)cc1 [Example 256, 3-[4-(1-ethylpropoxy)phenyl]-2-methyl-5-{[2′-(5-oxo-4,5-dihydro-1,2,4-oxadiazol-3-yl)biphenyl-4-yl]methyl}-6-propylpyrimidin-4(3H)-one] | 2 | 45.7 |
| CCCc1nc(C)n(-c2ccc(OC3CC3)cc2)c(=O)c1Cc1ccc(-c2ccccc2-c2noc(=O)[nH]2)cc1 [Example 265, 3-[4-(cyclopropyloxy)phenyl]-2-methyl-5-{[2′-(5-oxo-4,5-dihydro-1,2,4-oxadiazol-3-yl)biphenyl-4-yl]methyl}-6-propylpyrimidin-4(3H)-one] | 1.7 | 27.8 |
| CCCc1nc(C)n(-c2ccc(OC(C)CC)cc2)c(=O)c1Cc1ccc(-c2ccccc2-c2noc(=O)[nH]2)cc1 (centres unmarked) [Example 271, 3-(4-sec-butoxyphenyl)-2-methyl-5-{[2′-(5-oxo-4,5-dihydro-1,2,4-oxadiazol-3-yl)biphenyl-4-yl]methyl}-6-propylpyrimidin-4(3H)-one] | 1.9 | 37.1 |
| CCCc1nc(C)n(-c2cc(F)c3c(c2)CC(C)(C)O3)c(=O)c1Cc1ccc(-c2ccccc2-c2noc(=O)[nH]2)cc1 [Example 275, 3-(7-fluoro-2,2-dimethyl-2,3-dihydro-1-benzofuran-5-yl)-2-methyl-5-{[2′-(5-oxo-4,5-dihydro-1,2,4-oxadiazol-3-yl)biphenyl-4-yl]methyl}-6-propylpyrimidin-4(3H)-one] | 1.8 | 17 |
| CCCc1nc(C)n(-c2ccc(OC(C)CF)cc2)c(=O)c1Cc1ccc(-c2ccccc2-c2noc(=O)[nH]2)cc1 (centres unmarked) [Example 277, 3-[4-(2-fluoro-1-methylethoxy)phenyl]-2-methyl-5-{[2′-(5-oxo-4,5-dihydro-1,2,4-oxadiazol-3-yl)biphenyl-4-yl]methyl}-6-propylpyrimidin-4(3H)-one] | 1.8 | 33.5 |
| CCCc1nc(C)c(Cc2ccccc2)c(=O)n1Cc1ccc(-c2ccccc2-c2noc(=O)[nH]2)cc1 [Example 287, 5-benzyl-6-methyl-3-{[2′-(5-oxo-4,5-dihydro-1,2,4-oxadiazol-3-yl)biphenyl-4-yl]methyl}-2-propylpyrimidin-4(3H)-one] | 1.8 | 40.9 |
